Experimental data reported in PubChem BioAssay (NCI).
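A five-concentration, 48-hour dose response in 96-well plates underlies each endpoint, interpolated linearly between surrounding concentrations. GI50 marks 50% less growth. TGI denotes the concentration required for complete inhibition of growth.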

Experiments:
Assay in all cases: NCI tumour cell line growth inhibition, 48 h
[1] = tested on: IGROV1 ovarian
[2] = tested on: TK-10 renal
[3] = tested on: HOP-92 NSCLC
[4] = tested on: HL-60(TB) leukemia
[5] = tested on: LOX IMVI melanoma
[6] = tested on: SNB-19 CNS
[7] = tested on: RXF 393 renal
[8] = tested on: SF-539 CNS
[9] = tested on: NCI-H522 lung
[10] = tested on: SN12C renal

SMILES | TGI [1] [µM] | TGI [2] [µM] | TGI [3] [µM] | TGI [4] [µM] | TGI [5] [µM] | TGI [6] [µM] | TGI [7] [µM] | TGI [8] [µM] | TGI [9] [µM] | TGI [10] [µM] | GI50 [1] [µM] | GI50 [2] [µM] | GI50 [3] [µM] | GI50 [4] [µM] | GI50 [8] [µM] | GI50 [5] [µM] | GI50 [7] [µM] | GI50 [9] [µM] | GI50 [6] [µM] | GI50 [10] [µM]
O=c1c2ccccc2[nH]n1Cc1ccccc1 | > 100 | > 100 | > 100 | > 100 | > 100 | > 100 | > 100 | > 100 | > 100 | > 100 |  |  |  |  |  |  |  |  |  | 
NCCSc1cc(O)c2c(c1N)C(=O)c1ccccc1C2=O | 65.9 | > 100 | > 100 | 66.8 |  | > 100 | 91.1 | > 100 | 39.7 | > 100 |  |  |  |  |  |  |  |  |  | 
CC1(C)[C@@H]2CC[C@]1(C)[C@H](OC(=O)/C=C/c1ccccc1)C2 | 51.8 | > 100 |  | 40.5 | 37.1 | 36.3 | 33.2 | 35.9 | 28.6 | 34.3 |  |  |  |  |  |  |  |  |  | 
COc1cccc(/C=N/NC(=O)CSCC(=O)N/N=C/c2cccc(OC)c2OC)c1OC | > 100 | > 100 | > 100 | > 100 |  | > 100 | > 100 | > 100 | > 100 | > 100 |  |  |  |  |  |  |  |  |  | 
O=C1C=CC2OC(c3ccccc3)C(O)C2O1 (stereo not drawn) | 29.1 |  | 10.2 | 3.29 | 8.18 | 30.2 | 4.47 | 14.1 | 4 | 22.9 |  |  |  |  |  |  |  |  |  | 
COc1cc(OC)cc(-c2ccc(-c3ccc(C(=N)N)cn3)o2)c1 | 3.38 | 3.26 | 2.87 | 4.38 |  |  |  | 2.9 |  |  | 1.81 | 1.79 | 1.42 | 2.12 | 1.55 |  |  |  |  | 
COc1cc(C(=O)O[C@H](C(=O)NCCCNC(=O)[C@@H](OC(=O)c2cc(OC)cc3c(C)cccc23)[C@]2(C)CO2)[C@]2(C)CO2)c2cccc(C)c2c1 |  | 0.28 | 0.15 | < 0.01 | < 0.01 | 0.701 | < 0.01 | 0.138 | < 0.01 | 0.486 |  | 0.0275 | < 0.0113 | < 0.01 | < 0.0268 | < 0.01 | < 0.01 | < 0.01 |  | 
COc1ccc2c3c(Nc4cccc(/C(C)=N\O)c4)[nH]c4ccccc4c-3c(N=O)c2c1 | 84.5 | > 100 |  | > 100 | 67.7 | > 100 |  | > 100 | > 100 | > 100 | 26.1 | 80.3 |  | 16.9 | > 100 | 29.1 |  | 46.2 | 43.7 | 30
COc1cc(C2c3cc4c(cc3[C@@H](Nc3cccc(CO)c3)C3COC(=O)[C@H]23)OCO4)cc(OC)c1O (stereo partly drawn) | 17 |  | 13.3 | 0.343 | 3.74 | 15.7 | 6.05 | 1.99 | 3.52 | 6.11 |  |  |  |  |  |  |  |  |  | 
C=CCN1/C(=C(\C#N)c2nc3ccccc3[nH]2)Sc2c1nc[nH]c2=O | > 100 | > 100 | > 100 | > 100 |  | > 100 | > 100 | > 100 | > 100 | > 100 |  |  |  |  |  |  |  |  |  | 
Cc1[nH]c(=O)[nH]c(=O)c1/C=C/C(=O)O (tested in a mixture with another compound) | > 625 |  | 623 | > 625 | > 625 | > 625 | > 625 | > 625 | > 625 | > 625 |  |  |  |  |  |  |  |  |  | 
CC(CC(N)C(=O)O)C(=O)O (stereo not drawn) | > 100 | > 100 | > 100 | > 100 | > 100 | > 100 | > 100 |  | > 100 | > 100 |  |  |  |  |  |  |  |  |  | 
CCC(C)C(N)C(=O)NC(CC(N)=O)C(=O)NC(CC(C)C)C(=O)NC(CCCCN)C(=O)NC(C)C(=O)NC(CC(C)C)C(=O)NC(C)C(=O)NC(C)C(=O)NC(CC(C)C)C(=O)NC(C)C(=O)NC(CCCCN)C(=O)NC(CCCCN)C(=O)NC(C(=O)NC(CC(C)C)C(N)=O)C(C)CC (stereo not drawn) | 34.4 | 27.6 | 5.38 | 7.23 | 35.3 | 27.8 | 21.7 | 11.3 | 33.3 | 26.4 |  |  |  |  |  |  |  |  |  | 
COc1nc2cccc(C(O)c3ccccc3)c2nc1-c1ccccc1 (stereo not drawn) | 44.6 | > 100 | 31.8 | 18 | 22 | 51.1 | 14.6 | 8.23 | 27.2 | 25.6 |  |  |  |  |  |  |  |  |  | 
OCC1COc2cc(Cl)c(Cl)cc2O1 (stereo not drawn) | > 10 | > 10 |  | > 10 | > 10 | > 10 | > 10 | > 10 | > 10 | > 10 |  |  |  |  |  |  |  |  |  | 
COc1cc2c3cc1Oc1c(O)c(OC)cc4c1C(Cc1ccc(O)c(c1)Oc1ccc(cc1)CC3N(C)CC2)N(C)CC4 (stereo not drawn) | 56.1 | 18.2 | 24.3 | 48.4 | 10.7 | 68 | 9.7 | 5.8 | 29.7 | 28.6 |  |  |  |  |  |  |  |  |  | 
N#CC(N=Nc1ccccc1C(=O)O)C(N)=O (stereo not drawn) |  | > 100 |  | > 100 |  | > 100 | > 100 |  | > 100 | > 100 |  |  |  |  |  |  |  |  |  | 
Cc1cccc(Br)[n+]1[O-] | > 100 | > 100 | > 100 |  | > 100 | > 100 | > 100 | > 100 | > 100 | > 100 |  |  |  |  |  |  |  |  |  | 
Cc1c[n+]2c3ccccc3c3ccccc3c2s1 | > 100 | > 70.9 | 47.4 | > 61.6 | 41.9 | 15.6 | 0.559 | 16.6 | 15.7 | 15.5 |  |  |  |  |  |  |  |  |  | 
